Laboratory results reported in ChEMBL document CHEMBL1833826, “Evaluation of PI polyamide conjugates with eight-base pair recognition and improvement of the aqueous solubility by PEGylation” (Bioorg Med Chem, 2011).
In brackets after ≈: the same amount, converted by molar mass. Activity calls are given as the source filed them. The rule behind the calls is not given here.

Tests used:
Nucleic Acid [1] = test: Induction of 5'-Texas Red-labelled 208-bp DNA alkylation at 5'-TGCATCCA-3' sequence at 25 to 200 nM after 18 hrs followed by quenching with calf thymus DNA by PAGE analysis; type: nucleic-acid assay
Nucleic Acid [2] = test: Induction of 5'-Texas Red-labelled 208-bp DNA alkylation at 5'-GTCATCCA-3' sequence at 25 to 200 nM after 18 hrs followed by quenching with calf thymus DNA by PAGE analysis; type: nucleic-acid assay
A549 = test: Cytotoxicity against human A549 cells after 48 hrs; type: functional, cell-based; settings: A549, 48 h
DU-145 = test: Cytotoxicity against human DU145 cells after 48 hrs; type: functional, cell-based; settings: DU-145, 48 h
Nucleic Acid [3] = test: Induction of 5'-Texas Red-labelled 208-bp DNA alkylation at 5'-TCCATCCA-3' sequence at 25 to 200 nM after 18 hrs followed by quenching with calf thymus DNA by PAGE analysis; type: nucleic-acid assay; settings: Homo sapiens
[4] = Solubility of the compound in Milli-Q water at 25 degC; type: physicochemical
[5] = Chemical stability of the compound in 5 mM sodium phosphate buffer containing 10% DMF at pH 7 assessed as half life by HPLC analysis; type: physicochemical
Nucleic Acid [6] = test: Induction of 5'-Texas Red-labelled 208-bp DNA alkylation at 5'-AATACTCA-3' sequence at 25 to 200 nM after 18 hrs followed by quenching with calf thymus DNA by PAGE analysis; type: nucleic-acid assay
Nucleic Acid [7] = test: Induction of 5'-Texas Red-labelled 208-bp DNA alkylation at 5'-ATTTGTCA-3' sequence at 25 to 200 nM after 18 hrs followed by quenching with calf thymus DNA by PAGE analysis; type: nucleic-acid assay; settings: Homo sapiens
Nucleic Acid [8] = test: Induction of 5'-Texas Red-labelled 208-bp DNA alkylation at 5'-ATTCACTA-3' sequence at 25 to 200 nM after 18 hrs followed by quenching with calf thymus DNA by PAGE analysis; type: nucleic-acid assay; settings: Homo sapiens

Row | SMILES | IC50 (A549) [nM] | IC50 (DU-145) [nM] | solubility [4] [µM] | half-life [5] [h] | also measured
1 | CC(=O)Nc1cn(C)c(C(=O)Nc2cn(C)c(C(=O)Nc3cc(C(=O)NCCC(=O)Nc4cn(C)c(C(=O)Nc5cn(C)c(C(=O)NCCCC(=O)Nc6cc(C(=O)Nc7cc(C(=O)NCCC(=O)Nc8cc(C(=O)Nc9ccc%10[nH]c(C(=O)N%11CC(CCl)c%12c%11cc(O)c%11ccccc%12%11)cc%10c9)n(C)c8)n(C)c7)n(C)c6)n5)n4)n(C)c3)n2)n1 (configuration not stated) | 240 | 45 |  |  | Activity (Nucleic Acid [1]): 47%; Activity (Nucleic Acid [2]): 11%; Activity (Nucleic Acid [3]): Active
2 | COCCNC(=O)Oc1cc2c(c3ccccc13)C(CCl)CN2C(=O)c1cc2cc(NC(=O)c3cc(NC(=O)c4cc(NC(=O)c5cc(NC(=O)c6cc(NC(=O)CCCNC(=O)c7cc(NC(=O)c8cc(NC(=O)c9nc(NC(=O)CCNC(=O)c%10nc(NC(=O)c%11cc(NC(C)=O)cn%11C)cn%10C)cn9C)cn8C)cn7C)cn6C)cn5C)cn4C)cn3C)ccc2[nH]1 (configuration not stated) |  |  | 180 (≈ 323 µg/mL) | 3.5 | 
3 | CC(=O)Nc1cn(C)c(C(=O)Nc2cn(C)c(C(=O)Nc3cc(C(=O)Nc4cc(C(=O)NCCCC(=O)Nc5cn(C)c(C(=O)Nc6cn(C)c(C(=O)Nc7ccc8[nH]c(C(=O)N9CC(CCl)c%10c9cc(O)c9ccccc%109)cc8c7)n6)n5)n(C)c4)n(C)c3)n2)n1 (configuration not stated) | 135 | 47 |  |  | 
4 | CC(=O)Nc1cc(C(=O)Nc2cn(C)c(C(=O)NCCC(=O)Nc3cn(C)c(C(=O)Nc4cc(C(=O)Nc5cc(C(=O)NCCCC(=O)Nc6cc(C(=O)Nc7cc(C(=O)Nc8cc(C(=O)Nc9cc(C(=O)Nc%10ccc%11[nH]c(C(=O)N%12CC(CCl)c%13c%12cc(OC(=O)NCCCN(C)C)c%12ccccc%13%12)cc%11c%10)n(C)c9)n(C)c8)n(C)c7)n(C)c6)n(C)c5)n(C)c4)n3)n2)n(C)c1 (configuration not stated) |  |  | 230 (≈ 418 µg/mL) | 1.1 | 
5 | CC(=O)Nc1cc(C(=O)Nc2cn(C)c(C(=O)NCCC(=O)Nc3cn(C)c(C(=O)Nc4cc(C(=O)Nc5cc(C(=O)NCCCC(=O)Nc6cc(C(=O)Nc7cc(C(=O)Nc8cc(C(=O)Nc9cc(C(=O)Nc%10ccc%11[nH]c(C(=O)N%12CC(CCl)c%13c%12cc(OC(=O)[C@@H](N)CCCCN)c%12ccccc%13%12)cc%11c%10)n(C)c9)n(C)c8)n(C)c7)n(C)c6)n(C)c5)n(C)c4)n3)n2)n(C)c1 (some centres not stated) |  |  | 1200 (≈ 2180 µg/mL) | < 1 | 
6 | CC(=O)Nc1cn(C)c(C(=O)Nc2cc(C(=O)Nc3cc(C(=O)NCCC(=O)Nc4cc(C(=O)Nc5cc(C(=O)NCCCC(=O)Nc6cc(C(=O)Nc7cc(C(=O)NCCC(=O)Nc8cn(C)c(C(=O)Nc9ccc%10[nH]c(C(=O)N%11CC(CCl)c%12c%11cc(O)c%11ccccc%12%11)cc%10c9)n8)n(C)c7)n(C)c6)n(C)c5)n(C)c4)n(C)c3)n(C)c2)n1 (configuration not stated) | 29 | 7.9 |  |  | Activity (Nucleic Acid [6]): 54%; Activity (Nucleic Acid [7]): Active
7 | CC(=O)Nc1cc(C(=O)Nc2cn(C)c(C(=O)NCCC(=O)Nc3cn(C)c(C(=O)Nc4cc(C(=O)Nc5cc(C(=O)NCCCC(=O)Nc6cc(C(=O)Nc7cc(C(=O)Nc8cc(C(=O)Nc9cc(C(=O)Nc%10ccc%11[nH]c(C(=O)N%12CC(CCl)c%13c%12cc(O)c%12ccccc%13%12)cc%11c%10)n(C)c9)n(C)c8)n(C)c7)n(C)c6)n(C)c5)n(C)c4)n3)n2)n(C)c1 (configuration not stated) | 240 | 62 |  |  | Activity (Nucleic Acid [8]): Active
8 | CC(=O)Nc1cn(C)c(C(=O)Nc2cc(C(=O)Nc3cc(C(=O)NCCC(=O)Nc4cc(C(=O)NCCCC(=O)Nc5cc(C(=O)NCCC(=O)Nc6cn(C)c(C(=O)Nc7ccc8[nH]c(C(=O)N9CC(CCl)c%10c9cc(O)c9ccccc%109)cc8c7)n6)n(C)c5)n(C)c4)n(C)c3)n(C)c2)n1 (configuration not stated) | 51 | 28 |  |  | 
